Consider four molecules from PubChem BioAssay AID1919016 (Molecular Pharmacology Branch, DTP, NCI, 2023).

pIC50: −log10 of the molar value. Where “and” joins values, the source holds several entries; their conditions need not be identical. Identical values can stand only once.

This assay deals with NCI-H196 complex spheroid growth, percent test/control. The experiment in a line: Anticancer human tumor NCI-H196 cell line growth inhibition [AhR].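 On all read-outs here: seven days of drug exposure starting three days after plating.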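 On viability, T/C: 100% = DMSO vehicle control wells.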 Particulars: for viability, T/C: stronger effect = lower value. The source says: Multicellular complex tumor spheroid response to aryl hydrocarbon receptor antagonists in combination with a variety of drugs and investigational agents in selected tumor cell lines
The current study was undertaken to assess response to aryl hydrocarbon receptor antagonists in combination with standard-of-care drugs and investigational agents in solid tumor complex spheroid models. Complex spheroids include a stromal component modeled by human endothelial cells (HUVEC) and fibroblasts modeled by human mesenchymal stem cells (MSCs). The concentration ranges selected for each drug and investigational agent were based upon clinically achievable concentrations if the clinical Cmax of the agent was known.
Compounds. The drugs and investigational agents: BAY 2416964 (NSC825713), GNF351 (NSC835774), CH-223191 (NSC835775), CPI-455 (NSC825282), aza-TdCyd (NSC777586), decitabine (NSC127716), belinostat (NSC758774), entinostat (NSC756642), pevonedistat (NSC761192), tazemetostat (NSC777109), talazoparib (NSC765396), olaparib (NSC753686), selinexor (NSC780203), nedisertib (M3814, NSC802822), bortezomib (NSC756655), venetoclax (NSC766270), doxorubicin (NSC123127), elimusertib (BAY189344, NSC800525), ceralasertib (AZD6738, NSC777638), TAK-243 (NSC785004), alisertib (NSC759677), etoposide (NSC141540), topotecan (NSC609699), eribulin (NSC707389), gemcitabine (NSC613327), carboplatin (NSC241240), cisplatin (NSC119875), and SN-38 (NSC673596) were obtained from the National Cancer Institute (NCI) Developmental Therapeutics Program Chemical Repository (32). The FDA-approved anticancer drug set is available from the Developmental Therapeutics Program at https://dtp.cancer.gov/organization/dscb/obtaining/available plates.htm. […] The stock solutions were prepared in dimethyl sulfoxide (DMSO, Sigma-Aldrich, St. Louis, MO, cat. D2650), except for the platinum compounds which were prepared in saline (Quality Biological, Gaithersburg, MD, cat. 114-055-101), at 800-fold the tested concentration and stored at -70 degrees C prior to their use. All drugs and investigational agents were tested over a range starting from a high concentration at or near the clinical Cmax and decreasing in half-log increments. If the clinical Cmax for an agent had not been determined, the highest concentration tested was 10 microM (Table 1).
Cell Culture. All cells were maintained in an incubator at 37 degrees C and 5% CO2 with 95% humidity. The PDC lines were cultured according to standard operating procedures established by the NCI PDMR (https://pdmr.cancer.gov). Briefly, all PDCs were thawed and cultured in Matrigel-coated flasks prepared with a working solution of 1X Ham's F-12 nutrient mix, without supplementation (Invitrogen, Waltham, MA, cat. 11765054), 100 U/mL penicillin-streptomycin (Invitrogen, cat. 15140122), and 2.5% Matrigel (Corning Inc., Corning, NY, cat. 354248) for the first three passages. All PDCs were cultured in complete DMEM/F-12 media containing advanced DMEM/F-12 (Invitrogen, cat. 12634028), 4.9% defined fetal bovine serum, heat inactivated (HyClone Laboratories Inc., Logan, UT, cat. SH30070.03HI), 389 ng/mL hydrocortisone (Sigma-Aldrich, cat. H4001), 9.7 ng/mL human EGF recombinant protein (Invitrogen, cat. PHG0313), 23.4 microg/mL adenine (Sigma-Aldrich, cat. A2786), 97.3 U/mL penicillin-streptomycin (Invitrogen, cat. 15140122), 1.9 mM L-glutamine (Invitrogen, cat. 25030081), and 9.7 microM Y-27632 dihydrochloride (Tocris Bioscience, Bristol, United Kingdom, cat. 1254). The PDCs were cultured in complete DMEM/F12 media without 10 microM Y-27632 dihydrochloride for at least two passages prior to the screen. The established cell lines NCI-H1341 and […] were cultured in DMEM/F-12, HEPES (Invitrogen, cat. 11330032), 5% defined fetal bovine serum (HyClone Laboratories Inc., cat. SH30070.03), ITS premix universal culture supplement [insulin (5 microg/mL), transferrin (5 microg/mL), and selenious acid (5 ng/mL)] […]

The mark [1] stands for this setting: curve of first compound, second compound 0.1 µM.
The mark [2] stands for this setting: curve of first compound, second compound 0.316 µM.
Where [3] appears, read: curve of first compound, second compound 1 µM.
The mark [4] stands for this setting: curve of first compound, second compound 3.16 µM.
Setting [5] is: curve of first compound, second compound 10 µM.
Setting [6] is: second compound 0.1 µM, first compound 0.0316 µM.
[7] abbreviates: second compound 0.1 µM, first compound 0.1 µM.
Where [8] appears, read: second compound 0.1 µM, first compound 0.316 µM.
Where [9] appears, read: second compound 0.1 µM, first compound 1 µM.
Setting [10] is: second compound 0.1 µM, first compound 3.16 µM.
[11] abbreviates: second compound 0.1 µM, first compound 10 µM.
Setting [12] is: second compound 0.316 µM, first compound 0.0316 µM.
Where [13] appears, read: second compound 0.316 µM, first compound 0.1 µM.
Where [14] appears, read: second compound 0.316 µM, first compound 0.316 µM.
Setting [15] is: second compound 0.316 µM, first compound 1 µM.
Setting [16] is: second compound 0.316 µM, first compound 3.16 µM.
[17] abbreviates: second compound 0.316 µM, first compound 10 µM.
Where [18] appears, read: second compound 1 µM, first compound 0.0316 µM.
The mark [19] stands for this setting: second compound 1 µM, first compound 0.1 µM.
Where [20] appears, read: second compound 1 µM, first compound 0.316 µM.
[21] abbreviates: second compound 1 µM, first compound 1 µM.
The mark [22] stands for this setting: second compound 1 µM, first compound 3.16 µM.
Where [23] appears, read: second compound 1 µM, first compound 10 µM.
[24] abbreviates: second compound 3.16 µM, first compound 0.0316 µM.
Setting [25] is: second compound 3.16 µM, first compound 0.1 µM.
The mark [26] stands for this setting: second compound 3.16 µM, first compound 0.316 µM.
Where [27] appears, read: second compound 3.16 µM, first compound 1 µM.
[28] abbreviates: second compound 3.16 µM, first compound 3.16 µM.
Setting [29] is: second compound 3.16 µM, first compound 10 µM.
Where [30] appears, read: second compound 10 µM, first compound 0.0316 µM.
The mark [31] stands for this setting: second compound 10 µM, first compound 0.1 µM.
[32] abbreviates: second compound 10 µM, first compound 0.316 µM.
Where [33] appears, read: second compound 10 µM, first compound 1 µM.
The mark [34] stands for this setting: second compound 10 µM, first compound 3.16 µM.
Setting [35] is: second compound 10 µM, first compound 10 µM.

With `COc1ccc([C@@H](O)c2cc(-c3ncnc4cc(N5CCOCC5)ccc34)c(F)cc2Cl)nn1` + CC(CO)NC(=O)c1cc(-c2ccc(Cl)cc2)nn(-c2cnn(C)c2)c1=O, the pIC50 by setting is: under setting [1], < 5.00; under setting [2], < 5.00; under setting [3], < 5.00; under setting [4], < 5.00; under setting [5], < 5.00. Besides, the viability, T/C runs as follows: under setting [6], 102%; under setting [7], 91.2%; under setting [8], 94.5%; under setting [9], 80.3%; under setting [10], 75.6%; under setting [11], 82.4%. For the same molecule, the viability, T/C was 109% under setting [12]; 100% under setting [13]; 94.9% under setting [14]; 83.3% under setting [15]; 80.2% under setting [16]; 75.8% under setting [17]. The viability, T/C is 107% under setting [18]; 106% under setting [19]; 102% under setting [20]; 89.3% under setting [21]; 77% under setting [22]; 72.8% under setting [23]. Also, the viability, T/C runs as follows: under setting [24], 108%; under setting [25], 113%; under setting [26], 114%; under setting [27], 96.1%; under setting [28], 84.1%; under setting [29], 78.7%. Besides, the viability, T/C is 115% under setting [30]; 104% under setting [31]; 95.4% under setting [32]; 84.5% under setting [33]; 75.8% under setting [34]; 72.3% under setting [35].
`NS(=O)(=O)OCC1CC(n2ccc3c(NC4CCc5ccccc54)ncnc32)CC1O` (centres undefined): the viability, T/C is 78.8% and 89.8% and 79.4% (compound 0.0316 µM); 71.8% and 85.1% and 80.3% (compound 0.1 µM); 92% and 82% and 79.9% (compound 0.316 µM); 52.6% and 59.9% and 65.8% (compound 1 µM); 74.1% and 65.6% and 55.6% (compound 3.16 µM); 69.5% and 70.9% and 55.7% (compound 10 µM). Moreover, the pIC50 (curve of compound) was < 5.00.
As for `CC1(C)CCC(CN2CCN(c3ccc(C(=O)NS(=O)(=O)c4ccc(NCC5CCOCC5)c([N+](=O)[O-])c4)c(Oc4cnc5[nH]ccc5c4)c3)CC2)=C(c2ccc(Cl)cc2)C1` + Cc1ccccc1N=Nc1ccc(NC(=O)c2ccnn2C)c(C)c1, the pIC50 is < 5.00 under setting [1]; < 5.00 under setting [2]; < 5.00 under setting [3]; < 5.00 under setting [4]; < 5.00 under setting [5]. Also, the viability, T/C is 111% under setting [6]; 109% under setting [7]; 109% under setting [8]; 97% under setting [9]; 115% under setting [10]; 66% under setting [11]. The viability, T/C is 101% under setting [12]; 106% under setting [13]; 99.9% under setting [14]; 102% under setting [15]; 108% under setting [16]; 74.9% under setting [17]. The viability, T/C by setting is: under setting [18], 100%; under setting [19], 107%; under setting [20], 108%; under setting [21], 102%; under setting [22], 102%; under setting [23], 75.5%. For the same molecule, the viability, T/C was 104% under setting [24]; 111% under setting [25]; 107% under setting [26]; 104% under setting [27]; 104% under setting [28]; 67.2% under setting [29]. In addition, the viability, T/C is, setting by setting: under setting [30], 95.6%; under setting [31], 99.2%; under setting [32], 100%; under setting [33], 99.8%; under setting [34], 100%; under setting [35], 74.6%.
For the molecule `CC1COCCN1c1cc(C2(S(C)(=N)=O)CC2)nc(-c2ccnc3[nH]ccc23)n1` (centres undefined), the viability, T/C by setting is: (compound 0.0316 µM) 99.9% and 98.5% and 104%; (compound 0.1 µM) 100% and 104% and 96%; (compound 0.316 µM) 104% (2×) and 95.2%; (compound 1 µM) 88% and 95.2% and 97.4%; (compound 3.16 µM) 97.7% and 93.7% and 85%; (compound 10 µM) 69.4% and 81% and 77.6%. Also, the pIC50 (curve of compound) is < 5.00.

By pIC50 is commonly meant the IC50 on a negative log10 scale, so that one unit is a factor of ten. Broadly, the viability, T/C is the ratio of treated to control.
